# pIC50: −log10 of the molar value. Where two headings read alike, the source gives them in different places.
# How the values were obtained:
# [1] = tested on: Staphylococcus aureus MB6266 (MRSA COL); test: Nargenicin antibacterial assay (MIC), S. aureus; format: cell-based; settings: * = some reduction of growth versus control at […]; for MIC: Staphylococcus aureus, MRSA, read-out: S. aureus COL (MIC), MHII broth + 50% human serum
# [2] = tested on: Pseudomonas aeruginosa MB5890 (CB1101, efflux-deleted); test: microbe, parasite or virus in culture; format: cell-based; settings: * = some reduction of growth versus control at […]; for MIC: Pseudomonas aeruginosa, read-out: P. aeruginosa MB5890 efflux-del (MIC), MHII broth
# [3] = biological target: T1, S. aureus DnaE (DNA polymerase III α-subunit homolog from Staphylococcus aureus) (Staphylococcus aureus, UniProt Q5HF71); test: biochemical; format: biochemical; settings: for pIC50: S. aureus DnaE IC50; for IC50: read-out: S. aureus DnaE IC50 (converted)
# T1 construct: SaDnaE (S. aureus DnaE residues 1-1065); 6xHis (N); made in house; host or cells: E. coli BL21-AI
# T1 sequence (Q5HF71 1-1065): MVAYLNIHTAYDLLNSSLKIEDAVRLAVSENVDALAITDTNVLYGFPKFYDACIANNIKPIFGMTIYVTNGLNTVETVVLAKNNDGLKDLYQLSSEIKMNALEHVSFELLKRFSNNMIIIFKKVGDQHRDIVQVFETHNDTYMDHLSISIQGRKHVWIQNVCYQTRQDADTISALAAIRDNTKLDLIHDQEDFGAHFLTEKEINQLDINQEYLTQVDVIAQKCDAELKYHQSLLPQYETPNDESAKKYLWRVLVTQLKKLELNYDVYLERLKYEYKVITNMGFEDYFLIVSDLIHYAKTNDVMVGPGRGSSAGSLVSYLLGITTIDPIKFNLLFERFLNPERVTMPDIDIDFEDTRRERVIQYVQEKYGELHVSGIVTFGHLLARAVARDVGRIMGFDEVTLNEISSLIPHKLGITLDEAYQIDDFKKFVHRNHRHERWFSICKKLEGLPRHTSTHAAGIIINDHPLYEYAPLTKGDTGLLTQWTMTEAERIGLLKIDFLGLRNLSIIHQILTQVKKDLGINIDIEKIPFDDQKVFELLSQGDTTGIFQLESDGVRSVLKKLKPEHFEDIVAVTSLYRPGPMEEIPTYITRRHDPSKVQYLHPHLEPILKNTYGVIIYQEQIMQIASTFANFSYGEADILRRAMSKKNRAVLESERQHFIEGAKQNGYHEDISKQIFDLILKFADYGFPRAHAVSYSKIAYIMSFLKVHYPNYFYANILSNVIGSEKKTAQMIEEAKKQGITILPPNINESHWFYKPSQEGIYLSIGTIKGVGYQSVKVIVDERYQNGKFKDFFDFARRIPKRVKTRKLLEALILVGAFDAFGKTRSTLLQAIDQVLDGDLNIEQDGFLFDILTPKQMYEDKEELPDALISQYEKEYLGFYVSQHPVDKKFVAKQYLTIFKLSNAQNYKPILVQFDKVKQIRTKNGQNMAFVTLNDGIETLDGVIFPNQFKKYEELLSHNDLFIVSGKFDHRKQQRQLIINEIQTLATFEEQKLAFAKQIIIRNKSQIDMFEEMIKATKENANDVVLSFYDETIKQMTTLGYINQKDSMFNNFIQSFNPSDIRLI
# In short: (§1)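 His-tagged E. coli DnaE (residues 1-1160, 0.8 μg/ml) or S. aureus DnaE (residues 1-1065, 0.05 μg/ml) incubated 30 min at 30° C. with activated calf thymus DNA, 0.025 mM dATP/dGTP/dCTP and 0.011 mM 3H-dTTP in Tris pH 7.5/Mg acetate. TCA-precipitated labelled DNA counted.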
# [4] = biological target: T2, E. coli DnaE (DNA polymerase III α-subunit from Escherichia coli) (Escherichia coli, UniProt P10443); test: In vitro DnaE single enzyme assay (E. coli); format: biochemical; settings: for IC50: read-out: E. coli DnaE IC50 (converted); for pIC50: E. coli DnaE IC50
# T2 construct: EcDnaE (E. coli DnaE residues 1-1160); 6xHis (N); made in house; host or cells: E. coli BL21(DE3)
# In short: as §1
# [5] = tested on: Streptococcus pneumoniae MB6357 (CL 2883); test: Nargenicin antibacterial assay (MIC), S. pneumoniae; format: cell-based; settings: * = some reduction of growth versus control at […]; for MIC: Streptococcus pneumoniae, read-out: S. pneumoniae MB2883 (MIC), Isosensitest broth
# [6] = tested on: Escherichia coli MB5747 (LS 883, tolC); test: microbe, parasite or virus in culture; format: cell-based; settings: * = some reduction of growth versus control at […]; for MIC: Escherichia coli, read-out: E. coli LS883 tolC (MIC), MHII broth
# T2 sequence (P10443 whole entry, the tested form may be a part): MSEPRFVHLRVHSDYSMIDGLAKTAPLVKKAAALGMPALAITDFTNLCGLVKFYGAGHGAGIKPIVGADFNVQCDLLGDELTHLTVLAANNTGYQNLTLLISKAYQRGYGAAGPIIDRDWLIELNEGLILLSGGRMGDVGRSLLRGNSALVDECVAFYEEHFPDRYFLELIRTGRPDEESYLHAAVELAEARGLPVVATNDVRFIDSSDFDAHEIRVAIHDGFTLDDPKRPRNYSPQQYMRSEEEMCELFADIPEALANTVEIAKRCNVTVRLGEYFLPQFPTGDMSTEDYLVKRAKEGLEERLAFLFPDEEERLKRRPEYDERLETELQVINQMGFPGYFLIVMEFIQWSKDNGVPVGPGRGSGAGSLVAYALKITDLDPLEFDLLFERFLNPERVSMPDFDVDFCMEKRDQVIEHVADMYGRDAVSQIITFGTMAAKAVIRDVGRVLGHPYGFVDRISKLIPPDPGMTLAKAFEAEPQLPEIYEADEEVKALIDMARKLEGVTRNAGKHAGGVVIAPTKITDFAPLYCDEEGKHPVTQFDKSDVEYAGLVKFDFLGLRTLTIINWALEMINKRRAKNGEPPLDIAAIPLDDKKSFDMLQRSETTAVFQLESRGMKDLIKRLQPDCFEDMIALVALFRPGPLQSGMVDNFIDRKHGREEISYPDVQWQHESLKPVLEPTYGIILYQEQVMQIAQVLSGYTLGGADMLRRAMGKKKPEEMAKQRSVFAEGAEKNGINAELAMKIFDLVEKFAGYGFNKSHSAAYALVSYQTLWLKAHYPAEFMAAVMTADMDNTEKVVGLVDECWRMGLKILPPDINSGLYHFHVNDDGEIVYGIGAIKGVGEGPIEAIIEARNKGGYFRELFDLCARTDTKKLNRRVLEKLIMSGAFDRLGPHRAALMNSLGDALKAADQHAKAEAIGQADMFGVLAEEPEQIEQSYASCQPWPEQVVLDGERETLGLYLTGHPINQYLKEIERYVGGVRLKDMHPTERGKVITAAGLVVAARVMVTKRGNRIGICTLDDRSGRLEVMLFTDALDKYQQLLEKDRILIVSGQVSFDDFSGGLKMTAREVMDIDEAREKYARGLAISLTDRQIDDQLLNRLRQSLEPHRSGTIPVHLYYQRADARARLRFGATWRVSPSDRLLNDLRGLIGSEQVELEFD
SMILES,S. aureus COL (MIC) ([1]; MHII broth + 50% human serum) [µg/mL],P. aeruginosa MB5890 efflux-del (MIC) ([2]; MHII broth) [µg/mL],S. aureus DnaE IC50 [3] [µg/mL],E. coli DnaE IC50 [4] [µg/mL],S. pneumoniae MB2883 (MIC) ([5]; Isosensitest broth),E. coli LS883 tolC (MIC) ([6]; MHII broth) [µg/mL],MIC [1] [µg/mL],MIC [2] [µg/mL],pIC50 [3],IC50 [4] [µM],MIC [5] [µg/mL],MIC [6] [µg/mL],pIC50 [4],IC50 [3] [µM]
CO[C@H]1C[C@H]2C=CC3C4[C@H](O)[C@@H](C)[C@@H](OC(=O)c5ccc[nH]5)[C@@H]3O[C@]42/C(C)=C/[C@@H](C)[C@@H]([C@@H](C)OC(=O)C(=O)NCc2ccccc2CN(C)C)OC1=O [Example 141],0.25,4,<0.006,1,>128* μg/mL,0.25,,,,,,,,
"CO[C@H]1CC2C=C[C@H]3[C@H]4O[C@]2(/C(C)=C/[C@@H](C)[C@@H](C(C)O)OC1=O)[C@@H]3[C@H](O)[C@@H](C)[C@H]4OC(=O)c1ccc[nH]1 (stereo partly drawn) [Example 145, Nargenicin A1, reference compound]",,,,,,,0.25,4,> 7.93,1.75,> 128,0.25,,
"CO[C@H]1C[C@H]2C=C[C@H]3[C@H]4O[C@]2(/C(C)=C/[C@@H](C)[C@@H]([C@@H](C)O)OC1=O)[C@@H]3C(=O)[C@@H](C)[C@H]4OC(=O)c1ccc[nH]1 [Example 146, (3R,4S,7S,8aS,10aR,11R,12R,13S,14aR,14bS,E)-4-((R)-1-hydroxyethyl)-7-methoxy-1,3,13-trimethyl-6,14-dioxo-3,4,6,7,8,8a,10a,11,12,13,14,14a-dodecahydro-11,14b-epoxynaphtho[2,1-e]oxecin-12-yl 1H-pyrrole-2-carboxylate]",,,,,,,> 128,> 128,5.93,> 195,128,128,,
CO[C@H]1C[C@H]2C=C[C@@H]3[C@H]4[C@H](O)[C@@H](C)C(n5ccnc5)[C@@H]3O[C@]42/C(C)=C/[C@@H](C)[C@@H]([C@@H](C)O)OC1=O (stereo partly drawn) [Example 149],,,,,,,> 128,128,4.63,,> 128,32,< 3.67,
"C=CC[C@H]1[C@@H]2O[C@@]34/C(C)=C/[C@@H](C)[C@@H]([C@@H](C)O)OC(=O)[C@@H](OC)C[C@H]3C=C[C@@H]2[C@H]4C(=O)[C@@H]1C [Example 150, (3R,4S,7S,8aS,10aR,11S,12R,13R,14aR,14bS,E)-12-allyl-4-((R)-1-hydroxyethyl)-7-methoxy-1,3,13-trimethyl-3,4,8,8a,10a,11,12,13-octahydro-11,14b-epoxynaphtho[2,1-e]oxecine-6,14(7H,14aH)-dion]",,,,,,,> 64,> 64,,,64,> 64,< 3.95,5.62
"CO[C@H]1C[C@H]2C=C[C@H]3[C@H]4O[C@]2(/C(C)=C/[C@@H](C)[C@@H]([C@@H](C)O)OC1=O)[C@@H]3[C@H](O)[C@@H](C)[C@@H]4N [Example 151, (3R,4S,7S,8aS,10aR,11R,12S,13S,14R,14aS,14bS,E)-12-amino-14-hydroxy-4-((R)-1-hydroxyethyl)-7-methoxy-1,3,13-trimethyl-3,4,8,8a,10a,11,12,13,14,14 a-decahydro-11,14b-epoxynaphtho [2,1-e]oxecin-6(7H)-one]",,,,,,,> 128,> 128,5.30,,> 128,> 128,< 3.62,
CO[C@H]1C[C@H]2C=C[C@H]3[C@H]4O[C@]2(/C(C)=C/[C@@H](C)[C@@H]([C@@H](C)O)OC1=O)[C@@H]3[C@H](O)C(C)[C@@H]4NCc1cccs1.O=C(O)C(F)(F)F (stereo partly drawn) [Example 153],,,,,,,> 128,> 128,,,> 128,> 128,< 3.80,47.5
CO[C@H]1C[C@H]2C=C[C@H]3[C@H]4O[C@]2(/C(C)=C/[C@@H](C)[C@@H]([C@@H](C)O)OC1=O)[C@@H]3[C@H](O)C(C)[C@@H]4NCc1ccncc1.O=C(O)C(F)(F)F (stereo partly drawn) [Example 154],,,,,,,> 128,> 128,,,> 128,> 128,< 3.80,112
CO[C@H]1C[C@H]2C=C[C@H]3[C@H]4O[C@]2(/C(C)=C/[C@@H](C)[C@@H]([C@@H](C)O)OC1=O)[C@@H]3[C@H](O)C(C)[C@@H]4NCCN.O=C(O)C(F)(F)F (stereo partly drawn) [Example 155],,,,,,,> 128,128,,,> 128,> 128,< 3.76,2.59
CO[C@H]1C[C@H]2C=C[C@H]3[C@H]4O[C@]2(/C(C)=C/[C@@H](C)[C@@H]([C@@H](C)O)OC1=O)[C@@H]3[C@H](O)C(C)[C@@H]4NCCN1CCCCC1.O=C(O)C(F)(F)F (stereo partly drawn) [Example 156],,,,,,,> 128,> 128,,,> 128,> 128,< 3.81,32.5
CO[C@H]1C[C@H]2C=C[C@H]3[C@H]4O[C@]2(/C(C)=C/[C@@H](C)[C@@H]([C@@H](C)O)OC1=O)[C@@H]3[C@H](O)C(C)[C@@H]4NCCN1CCCC1.O=C(O)C(F)(F)F (stereo partly drawn) [Example 157],,,,,,,> 128,> 128,,,> 128,> 128,< 3.80,3.32
"CO[C@H]1C[C@H]2[C@@H]3O[C@@H]3[C@H]3[C@H]4O[C@]2(/C(C)=C/[C@@H](C)[C@@H]([C@@H](C)O)OC1=O)[C@@H]3[C@H](O)[C@@H](C)[C@H]4OC(=O)c1ccc[nH]1 [Example 160, (1aS, 1bS,3S,6S,7R,9aS,9bS,10R,11R,12R,13R,13aS,13bR,E)-10-hydroxy-6-((R)-1-hydroxyethyl)-3-methoxy-7,9,11-trimethyl-4-oxo-1 a,lb,2,3,4,6,7,9b,10,11,12,13,13a,13b-tetradecahydro-9a,13-epoxyoxireno[2′,3′:3,4]naphtho[2,1-e]oxecin-12-yl 1H-pyrrole-2-carboxylate]",,,,,,,> 8,> 128,,,> 128,> 8,< 3.73,4.14
"CO[C@H]1C[C@H]2C=C[C@H]3[C@H]4O[C@]2(/C(C)=C/[C@@H](C)[C@@H]([C@@H](C)O)OC1=O)[C@@H]3C(=O)C(C)[C@H]4C[N+](=O)[O-] (stereo partly drawn) [Example 162, (3R,4 S ,7S ,8aS ,10aR,11R,12 S ,14aR,14b S,E)-4-((R)-1-hydroxyethyl)-7-methoxy-1,3,13-trimethyl-12-(nitromethyl)-3 ,4,8,8a,10a,11,12,13-octahydro-11,14b-epoxynaphtho [2,1-e]oxecine-6,14(7H,14aH)-dione]",,,,,,,> 128,> 128,,,> 128,> 128,< 3.67,17.3
